Peptide text beside a SMILES is read from it.
What was measured:
[1] = tested on: HIV-1; assay: inhibition of fusion between HIV-1 IIIB infected H9 cells and uninfected MT-2 cells; format: cell-based; settings: Human immunodeficiency virus 1, MT2, 1 h, read-out: Inhibition of Cell Fusion ED50 ± SD (effective dose for 50% inhibition of HIV-1 induced cell fusion); Table 1A; -- = none at 1000 μg/ml
[2] = tested on: Chlamydia trachomatis; settings: cited from earlier work
[3] = tested on: HIV-1; settings: cited from earlier work
[4] = tested on: HSV-2; settings: cited from earlier work
[5] = some N-9 formulations; cited from earlier work
[6] = tested on: heterosexual HIV-1, gonorrhea and chlamydia transmission; settings: one of the N-9 formulations; cited from earlier work
[7] = tested on: HIV-1; assay: disintegration of HIV-1 measured by release of p24; design: species or system HIV-1 IIIB; settings: 5 minutes at 37° C.
Experimental: With respect of FIG. 3, serial dilutions of untreated and treated HIV-1 were tested for p24 by ELISA. As a positive control, HIV-1 treated with the detergent NP40 was also tested. The results obtained with the "[…]"-glycerol formulation containing PVP and Crospovidone and N-40 were identical and indicated an 100-fold increase of released p24 antigen, as compared to background levels corresponding to untreated virus. The infectivity of HIV-1 was also eliminated by treatment with the "[…]"-glycerol formulation containing PVP and Crospovidone.
To determine whether or not the CAP Formulations affect the integrity of HIV-1, a preparation of purified virus (strain IIIB; 5 μl; 1.52×10^10 virus particles/ml; Advanced Biotechnologies, Columbia, Md.) was mixed with 45 μl of 0.14 M NaCl and 50 μl of the respective CAP Formulation, each prewarmed to 37° C. After 5 minutes at 37° C., 400 μl of 0.14 M NaCl were added, and the mixture was filtered through a 0.45μ filter prewashed with 0.14 M NaCl, 0.01 M Tris pH 7.2, 0.02 NaN3 (TS). Serial 5-fold dilutions of the filtrate were tested by ELISA for the p24 antigen, as described above. In control experiments, either untreated HIV-1 IIIB or virus treated with the detergent NP40 (final concentration 5 mg/ml; 5 minutes at 37° C.) were equally diluted and tested for the p24 antigen. […]

Q: Which IC50 [1] does the source give for `O=S(=O)(O)NC1CCCCC1` [Sodium Cyclamate] here?
A: > 1000 µg/mL

Q: For `O=C(OCc1ccccc1)c1ccccc1` [Benzyl Benzoate], which IC50 [1] is on record?
A: > 1000 µg/mL

Q: Which IC50 [1] does the source give for `C/C=C/C=C/C(=O)O` [Sorbic Acid] here?
A: > 1000 µg/mL

Q: Which IC50 [1] does the source give for `O=[N+]([O-])C(Br)(CO)CO` [Bronopol] here?
A: > 1000 µg/mL

Q: Which IC50 [1] does the source give for `CCCOC(=O)c1ccc(O)cc1` [Propylparaben] here?
A: > 1000 µg/mL

Q: With `O=C1NS(=O)(=O)c2ccccc21` [Saccharin] as the compound, how does the IC50 [1] read?
A: > 1000 µg/mL

Q: Which IC50 [1] does the source give for `CCCOC(=O)c1cc(O)c(O)c(O)c1` [Propyl Gallate] here?
A: > 1000 µg/mL

Q: For `O=C(NCNC(=O)NC1C(=O)NC(=O)N1CO)NC1C(=O)NC(=O)N1CO` (centres unmarked) [Imidurea], which IC50 [1] is on record?
A: > 1000 µg/mL

Q: Which IC50 [1] does the source give for `CCCCOC(=O)CCCCCCCCC(=O)OCCCC` [Dibutyl Sebacate] here?
A: > 1000 µg/mL

Q: Which IC50 [1] does the source give for `Cc1cc(O)ccc1Cl` [Chlorocresol] here?
A: > 1000 µg/mL

Q: For `COC(=O)[C@H](Cc1ccccc1)NC(=O)[C@@H](N)CC(=O)O` [Aspartame] (HELM PEPTIDE1{D.F.[CO[*:1]]}$$$$V2.0), which IC50 [1] is on record?
A: > 1000 µg/mL

Q: With `Cc1occc(=O)c1O` [Maltol] as the compound, how does the IC50 [1] read?
A: > 1000 µg/mL

Q: With `Cc1cc(C(C)(C)C)c(O)c(C(C)(C)C)c1` [Butylated Hydroxytoluene] as the compound, how does the IC50 [1] read?
A: > 1000 µg/mL

Q: With `COC(=O)c1ccc(O)cc1` [Methylparaben] as the compound, how does the IC50 [1] read?
A: > 1000 µg/mL

Q: Which IC50 [1] does the source give for `CC1COC(=O)O1` (centres unmarked) [Propylene Carbonate] here?
A: > 1000 µg/mL

Q: For `COc1cc(C=O)ccc1O` [Vanillin], which IC50 [1] is on record?
A: > 1000 µg/mL

Q: With `CCOC(=O)c1ccc(O)cc1` [Ethylparaben] as the compound, how does the IC50 [1] read?
A: > 1000 µg/mL

Q: With `CC1CCC(C(C)C)C(O)C1` (centres unmarked) [Menthol] as the compound, how does the IC50 [1] read?
A: > 1000 µg/mL

Q: For `CCCCCCCCCCCCCCCCCCOC(=O)/C=C/C(=O)[O-].[Na+]` [Sodium Stearyl Fumarate], which IC50 [1] is on record?
A: > 1000 µg/mL

Q: For `CCCCCCCCCCCCCCCC(=O)OC[C@H](O)[C@H]1OC(=O)C(O)=C1O` [Ascorbyl Palmitate], which IC50 [1] is on record?
A: > 1000 µg/mL

Q: With `CC1=CC(=O)NS(=O)(=O)O1` [Acesulfame Potassium] as the compound, how does the IC50 [1] read?
A: > 1000 µg/mL

Q: For `CC(=O)OCC(COC(C)=O)OC(C)=O` [Triacetin], which IC50 [1] is on record?
A: > 1000 µg/mL

Q: Which “in vitro inactivation of Chlamydia trachomatis” value [2] does the source give for nonoxynol-9 [N-9] here?
A: shown to inactivate in vitro

Q: What about the “in vitro inactivation of HIV-1” value [3] of the same compound?
A: shown to inactivate in vitro

Q: What about the “in vitro inactivation of HSV-2” value [4] of the same compound?
A: shown to inactivate in vitro

Q: And the clinical adverse effects [5]?
A: adverse effects

Q: What about the “efficacy in decreasing rate of heterosexual HIV-1, gonorrhea and chlamydia transmission” value [6] of the same compound?
A: lack of efficacy

Q: Which IC50 [1] does the source give for `CCCCOC(=O)c1ccc(O)cc1` [Butylparaben] here?
A: > 1000 µg/mL

Q: For NP40, which “increase of released p24 antigen compared to untreated virus” value [7] is on record?
A: 100 fold

Reference: patent US6165493A, “"Methods and compositions for decreasing the frequency of HIV, herpesvirus and sexually transmitted bacterial infections"” (New York Blood Center, Inc., priority 1998, dated 2000)
